This passage reports solubility and MIC results from US9828413B2, “Vancomycin derivative, and preparation method and application thereof” (ACESYS PHARMA INC., priority 2013, dated 2017).

One series in a line: physchem. The settings on record: 25 °C, water, thermodynamic from solid.
Series [1] has as its system Staphylococcus aureus Mu50. In words: In vitro activity assay, minimum inhibitory concentration (MIC), cup-plate method. It is filed as cell-based. Conditions: strain Mu50, trypticase soy broth, read-out: MIC values, Staphylococcus aureus Mu50. As for the experimental part: (§1) In vitro activity assay was performed according to Microbiological Identification of Antibiotics, Appendix XIA, Volume II, Chinese Pharmacopoeia 2010. Vancomycin-sensitive Staphylococcus aureus strains (Newman and Mu 50) were selected as the test strains, and trypticase soy broth was selected as the culture medium.

Series [2] concerns Staphylococcus aureus Newman. The series is described as above. Conditions: strain Newman, trypticase soy broth, read-out: MIC values, Staphylococcus aureus Newman. It is filed as cell-based. The protocol: as §1

Converted amounts (≈) assume the structure as drawn.

What is called solubility is the dissolved amount per volume that the medium holds. Read a high solubility as much dissolved substance. Usually MIC stands for the lowest concentration found to suppress growth.

Consider `CC(C)C[C@@H](N)C(=O)NC1C(=O)N[C@@H](CC(N)=O)C(=O)N[C@H]2C(=O)NC3C(=O)N[C@H](C(=O)N[C@@H](C(=O)O)c4cc(O)cc(O)c4-c4cc3ccc4O)[C@H](O)c3ccc(c(Cl)c3)Oc3cc2cc(c3OC2OC(CO)C(O)C(O)C2OC2CC(C)(NCC(OCc3ccc(-c4ccccc4)cc3)C(=O)O)C(O)C(C)O2)Oc2ccc(cc2Cl)[C@H]1O` (stereo partly drawn) [Compound V53], for which, in the series “physchem”, the solubility at 30 min was determined as 20 mg/mL (≈ 11800 µM). The minimal inhibitory concentration (MIC) in series [1] was 2 µg/mL (≈ 1.18 µM); in series [2], under 0.125 µg/mL.

On to `CC(C)C[C@@H](N)C(=O)NC1C(=O)N[C@@H](CC(N)=O)C(=O)N[C@H]2C(=O)NC3C(=O)N[C@H](C(=O)N[C@@H](C(=O)O)c4cc(O)cc(O)c4-c4cc3ccc4O)[C@H](O)c3ccc(c(Cl)c3)Oc3cc2cc(c3OC2OC(CO)C(O)C(O)C2OC2CC(C)(NCC(OCc3ccc(-c4ccc(Cl)cc4)cc3)C(=O)O)C(O)C(C)O2)Oc2ccc(cc2Cl)[C@H]1O` (stereo partly drawn) [Compound V54], for which the solubility at 30 min in the series “physchem” was in the range of 15 to 20 mg/mL (≈ 8700 to 11600 µM). Also, the MIC is 2 µg/mL (≈ 1.16 µM) in series [1] and under 0.125 µg/mL in series [2].

Compound `COC(=O)C(CNC1(C)CC(OC2C(Oc3c4cc5cc3Oc3ccc(cc3Cl)[C@@H](O)[C@@H]3NC(=O)C(NC(=O)[C@@H]5NC(=O)[C@H](CC(N)=O)NC(=O)C(NC(=O)[C@H](N)CC(C)C)[C@H](O)c5ccc(c(Cl)c5)O4)c4ccc(O)c(c4)-c4c(O)cc(O)cc4[C@H](C(=O)O)NC3=O)OC(CO)C(O)C2O)OC(C)C1O)OCc1ccc(-c2ccc(Cl)cc2)cc1` (stereo partly drawn) [Compound V55] had a solubility at 30 min in the series “physchem” of 3 mg/mL (≈ 1730 µM). The MIC is 2 µg/mL (≈ 1.15 µM) in series [1] and under 0.125 µg/mL in series [2].

For `CCCOC(CNC1(C)CC(OC2C(Oc3c4cc5cc3Oc3ccc(cc3Cl)[C@@H](O)[C@@H]3NC(=O)C(NC(=O)C5NC(=O)C(CC(N)=O)NC(=O)[C@@H](NC(=O)[C@H](N)CC(C)C)C(O)c5ccc(c(Cl)c5)O4)c4ccc(O)c(c4)-c4c(O)cc(O)cc4C(C(=O)O)NC3=O)OC(CO)C(O)C2O)OC(C)C1O)C(=O)O` (stereo partly drawn) [Compound V57], in “physchem”, the solubility at 30 min is over 60 mg/mL. Besides, the MIC came out at 16 µg/mL (≈ 10.2 µM) in series [1] and 4 µg/mL (≈ 2.56 µM) in series [2].

`CCCCOC(CNC1(C)CC(OC2C(Oc3c4cc5cc3Oc3ccc(cc3Cl)[C@@H](O)[C@@H]3NC(=O)C(NC(=O)C5NC(=O)C(CC(N)=O)NC(=O)[C@@H](NC(=O)[C@H](N)CC(C)C)C(O)c5ccc(c(Cl)c5)O4)c4ccc(O)c(c4)-c4c(O)cc(O)cc4C(C(=O)O)NC3=O)OC(CO)C(O)C2O)OC(C)C1O)C(=O)O` (stereo partly drawn) [Compound V58] yielded a solubility at 30 min in the series “physchem” of 50 to 60 mg/mL (≈ 31700 to 38000 µM). Also, the MIC was over 128 µg/mL in series [1] and 64 µg/mL (≈ 40.5 µM) in series [2].

Regarding `CCCCCCOC(CNC1(C)CC(OC2C(Oc3c4cc5cc3Oc3ccc(cc3Cl)[C@@H](O)[C@@H]3NC(=O)C(NC(=O)C5NC(=O)C(CC(N)=O)NC(=O)[C@@H](NC(=O)[C@H](N)CC(C)C)C(O)c5ccc(c(Cl)c5)O4)c4ccc(O)c(c4)-c4c(O)cc(O)cc4C(C(=O)O)NC3=O)OC(CO)C(O)C2O)OC(C)C1O)C(=O)OC` (stereo partly drawn) [Compound V59], the solubility at 30 min in “physchem” is under 10 mg/mL. The minimum inhibitory concentration (MIC) in series [1] is 8 µg/mL (≈ 4.93 µM); in series [2], 2 µg/mL (≈ 1.23 µM).

`CCCCCCOC(CNC1(C)CC(OC2C(Oc3c4cc5cc3Oc3ccc(cc3Cl)[C@@H](O)[C@@H]3NC(=O)C(NC(=O)[C@@H]5NC(=O)[C@H](CC(N)=O)NC(=O)C(NC(=O)[C@H](N)CC(C)C)[C@H](O)c5ccc(c(Cl)c5)O4)c4ccc(O)c(c4)-c4c(O)cc(O)cc4[C@H](C(=O)O)NC3=O)OC(CO)C(O)C2O)OC(C)C1O)C(=O)O` (stereo partly drawn) [Compound V60] came in with a solubility at 30 min in the series “physchem” of over 20 mg/mL. In addition, the results for the MIC in series [1] and in series [2] were 8 µg/mL (≈ 4.98 µM) and 2 µg/mL (≈ 1.24 µM), respectively.

Turning to `CN[C@H](CC(C)C)C(=O)NC1C(=O)N[C@@H](CC(N)=O)C(=O)N[C@H]2C(=O)NC3C(=O)N[C@H](C(=O)N[C@@H](C(=O)O)c4cc(O)cc(O)c4-c4cc3ccc4O)[C@H](OC3CC(C)(N)C(O)C(C)O3)c3ccc(c(Cl)c3)Oc3cc2cc(c3OC2OC(CO)C(O)C(O)C2OC2CC(C)(NCC(OCc3ccccc3)C(=O)O)C(O)C(C)O2)Oc2ccc(cc2Cl)[C@H]1O` (stereo partly drawn) [Compound V61], in “physchem”, the solubility at 30 min was 20 mg/mL (≈ 11300 µM). Besides, the figures for the minimal inhibitory concentration (MIC) in series [1] and in series [2] were 8 µg/mL (≈ 4.52 µM) and 4 µg/mL (≈ 2.26 µM), respectively.

The compound `CN[C@H](CC(C)C)C(=O)N[C@@H]1C(=O)NC(CC(N)=O)C(=O)NC2C(=O)NC3C(=O)N[C@H](C(=O)NC(C(=O)O)c4cc(O)cc(O)c4-c4cc3ccc4O)[C@H](OC3CC(C)(N)C(O)C(C)O3)c3ccc(c(Cl)c3)Oc3cc2cc(c3OC2OC(CO)C(O)C(O)C2OC2CC(C)(NCC(OCc3ccc(Cl)cc3)C(=O)O)C(O)C(C)O2)Oc2ccc(cc2Cl)C1O` (stereo partly drawn) [Compound V62] displayed a solubility at 30 min in “physchem” of 5 to 20 mg/mL (≈ 2770 to 11100 µM). Besides, the MIC in series [1] was 8 µg/mL (≈ 4.43 µM); in series [2], 4 µg/mL (≈ 2.22 µM).

In the case of `CN[C@H](CC(C)C)C(=O)N[C@@H]1C(=O)NC(CC(N)=O)C(=O)NC2C(=O)NC3C(=O)N[C@H](C(=O)NC(C(=O)O)c4cc(O)cc(O)c4-c4cc3ccc4O)[C@H](OC3CC(C)(N)C(O)C(C)O3)c3ccc(c(Cl)c3)Oc3cc2cc(c3OC2OC(CO)C(O)C(O)C2OC2CC(C)(NCC(OCc3ccc(-c4ccc(Cl)cc4)cc3)C(=O)O)C(O)C(C)O2)Oc2ccc(cc2Cl)C1O` (stereo partly drawn) [Compound V63], in the series “physchem”, the solubility at 30 min is 5 to 20 mg/mL (≈ 2660 to 10600 µM). The minimal inhibitory concentration (MIC) in series [1] was 2 µg/mL (≈ 1.06 µM); in series [2], under 0.125 µg/mL.

`CN[C@H](CC(C)C)C(=O)N[C@@H]1C(=O)NC(CC(N)=O)C(=O)NC2C(=O)NC3C(=O)N[C@H](C(=O)NC(C(=O)O)c4cc(O)cc(O)c4-c4cc3ccc4O)[C@H](OC3CC(C)(N)C(O)C(C)O3)c3ccc(c(Cl)c3)Oc3cc2cc(c3OC2OC(CO)C(O)C(O)C2OC2CC(C)(NCC(OCc3ccc(-c4ccccc4Cl)cc3)C(=O)O)C(O)C(C)O2)Oc2ccc(cc2Cl)C1O` (stereo partly drawn) [Compound V64]: in “physchem”, the solubility at 30 min was in the range of 5 to 20 mg/mL (≈ 2660 to 10600 µM). The MIC was 2 µg/mL (≈ 1.06 µM) in series [1] and under 0.125 µg/mL in series [2].

Consider `CN[C@H](CC(C)C)C(=O)NC1C(=O)N[C@@H](CC(N)=O)C(=O)N[C@H]2C(=O)NC3C(=O)N[C@H](C(=O)N[C@@H](C(=O)O)c4cc(O)cc(O)c4-c4cc3ccc4O)[C@H](OC3CC(C)(N)C(O)C(C)O3)c3ccc(c(Cl)c3)Oc3cc2cc(c3OC2OC(CO)C(O)C(O)C2OC2CC(C)(NCC(OCc3cccc(-c4ccc(Cl)cc4)c3)C(=O)O)C(O)C(C)O2)Oc2ccc(cc2Cl)[C@H]1O` (stereo partly drawn) [Compound V65], for which the solubility at 30 min in “physchem” lay in the range of 5 to 20 mg/mL (≈ 2660 to 10600 µM). Further, the MIC was 2 µg/mL (≈ 1.06 µM) in series [1] and under 0.125 µg/mL in series [2].

Compound `CC(C)C[C@@H](N)C(=O)N[C@@H]1C(=O)NC(CC(N)=O)C(=O)NC2C(=O)NC3C(=O)N[C@H](C(=O)NC(C(=O)O)c4cc(O)cc(O)c4-c4cc3ccc4O)[C@H](OC3CC(C)(N)C(O)C(C)O3)c3ccc(c(Cl)c3)Oc3cc2cc(c3OC2OC(CO)C(O)C(O)C2OC2CC(C)(NCC(OCc3ccc(-c4ccc(Cl)cc4)cc3)C(=O)O)C(O)C(C)O2)Oc2ccc(cc2Cl)C1O` (stereo partly drawn) [Compound V66] came in with a solubility at 30 min in the series “physchem” of 5 to 20 mg/mL (≈ 2680 to 10700 µM). Moreover, the results for the MIC in series [1] and in series [2] were 2 µg/mL (≈ 1.07 µM) and under 0.125 µg/mL, respectively.

In the series “physchem”, `CCCCCCCCCCOC(CNC1(C)CC(OC2C(Oc3c4cc5cc3Oc3ccc(cc3Cl)[C@@H](O)[C@@H]3NC(=O)C(NC(=O)C5NC(=O)C(CC(N)=O)NC(=O)[C@@H](NC(=O)[C@@H](CC(C)C)NC)C(O)c5ccc(c(Cl)c5)O4)c4ccc(O)c(c4)-c4c(O)cc(O)cc4C(C(=O)O)NC3=O)OC(CO)C(O)C2O)OC(C)C1O)C(=O)O` (stereo partly drawn) [Compound V67] came in with a solubility at 30 min of 5 to 10 mg/mL (≈ 2980 to 5960 µM). For the same compound, the MIC is 4 µg/mL (≈ 2.38 µM) in series [1] and 2 µg/mL (≈ 1.19 µM) in series [2].
